Consider five molecules from US9181189B2, “Lipogenesis inhibitor compounds” (PIERRE FABRE DERMO-COSMETIQUE, priority 2011, dated 2015).

In assay [1] the test system is differentiated sebocytes (Tel-E6E7 line). As to the kind of experiment: Production of intracellular lipids by differentiated sebocytes (Nile Red / Adipored quantitation). The note with it: for production of lipids by the sebocytes: Tel-E6E7 line differentiated 7 days in the presence of testosterone and other supplements, FIG. 1; for inhibitor effect on lipogenesis directly induced by DHT: Tel-E6E7 line differentiated in the presence of DHT and other supplements, FIG. 2. Format: cell-based, human. The procedure: The Tel-E6E7 line (courtesy of Dr. Stephen Lyle, University of Massachusetts, USA) is a human epithelial line derived from stem cells of the hair follicle bulb.
Differentiation into sebocytes of the Tel-E6E7 line was conducted under the conditions described by S. Lyle. The cells were seeded in 24-well plates at a density of 25 000 cells/cm^2 in DME medium supplemented with 46% HamF12 medium, 6% foetal calf serum (FCII, Hyclone), 2% human serum and 10 nM EGF. Two days after seeding, the differentiation of the cells into sebocytes was induced by adding the following supplements to the culture medium: 0.1 μM testosterone (or DHT (0.1 μM)), 1 μM Troglitazone, 100 μM WyA4643 and 10 nM Insulin. The derivatives to be tested were added at the same time. Sebocyte differentiation was continued for 7 days. The culture medium and the derivatives to be tested were renewed every 2-3 days. The production of intracellular lipids was measured by quantitation of the Nile Red marker (Adipored kit, Lonza) and following the manufacturer's instructions. The amount of measured fluorescence (Relative Fluorescence Units) is proportional to the quantity of accumulated neutral intracellular lipids. All tested conditions were performed in duplicate and repeated three times.
The inventors studied the variations in lipid levels produced by the sebocytes after a differentiation time of 7 days in the presence of testosterone treated with the derivatives of the present invention.

In the next assay the target is T1, type-1 5-α-reductase (Homo sapiens, UniProt P18405).
T1 construct: endogenous in cells
T1 sequence (P18405 1-259): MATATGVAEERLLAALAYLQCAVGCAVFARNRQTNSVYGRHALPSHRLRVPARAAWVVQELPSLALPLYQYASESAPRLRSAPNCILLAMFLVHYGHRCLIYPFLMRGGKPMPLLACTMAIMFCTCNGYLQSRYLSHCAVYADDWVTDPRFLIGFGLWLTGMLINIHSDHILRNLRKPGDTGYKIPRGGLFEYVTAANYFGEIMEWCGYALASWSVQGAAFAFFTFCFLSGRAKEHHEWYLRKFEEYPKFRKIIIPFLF
The conditions noted are these: fibroblast cultures; cited from earlier work.

In the case of `CCCCCCCCCCCC(=O)OCC(O)COC(=O)C1CCCNC1` (centres unmarked) [3-(dodecanoyloxy)-2-hydroxypropyl piperidine-3-carboxylate], in assay [1] (10 μM), the “production of lipids by the sebocytes” value is given as “significant decrease”.

Regarding `CCCCCCCCCCCC(=O)OCC(O)COC(=O)c1cccnc1` (centres unmarked) [glyceryl laurate nicotinate, 3-(dodecanoyloxy)-2-hydroxypropyl nicotinate], the “production of lipids by the sebocytes” value in assay [1] (5 μM) and in assay [1] (10 μM) was “decreases most significantly” throughout.

As to `CCCCCCCCCCCC(=O)OCC(O)CO` (centres unmarked) [glyceryl laurate, 2,3-dihydroxypropyl dodecanoate], the “production of lipids by the sebocytes” value in assay [1] (5 μM) and in assay [1] (10 μM) was “does not reach the significance threshold” throughout. Besides, the “inhibiting effect on type-1 5-α-reductase” value on type-1 5-α-reductase is listed as “inhibiting effect”.

Take `O=C(O)c1cccnc1` [nicotinic acid]: the “inhibitor effect on lipogenesis directly induced by DHT” value in assay [1] is “do not show any inhibitor effect”.

Turning to `O=C(O)C1CCCNC1` (centres unmarked) [nipecotic acid], in assay [1], the “inhibitor effect on lipogenesis directly induced by DHT” value is “do not show any inhibitor effect”.
